{"source": "patent US20200054646A1", "about": "“USE OF PHENOTHIAZINE DERIVATIVE IN THE TREATMENT OF INFECTIOUS PURPURA OR PURPURA FULMINANS” (priority 2016, published 2020)", "key": {"[1]": {"system": "HDMECs colonized by N. meningitidis", "assay": "Basement membrane remodelling: Gelatin-FITC matrix degradation by infected HDMEC", "format": "cell-based, human", "details": "infected cells, 150 μg/ml Gentamicin alone, 24 h post-infection", "procedure": "(A) Experimental procedure: HDMECs grown on a fluorescent matrix (Gelatin-Fitc) were colonized by N. meningitidis for 6 h. They were then treated with 150 μg/ml gentamicin for 1 h, then 15 min with Trifluoperazine (50 μM) (or solvent alone as control) and incubated for further 15 h in the presence of 150 μg/ml gentamicin. (B) Fluorescence microscopy was used to visualize cells stained with labelled phalloidin and the fluorescent matrix. The presence of dark zones corresponds to zones of matrix degradation. (C) Quantification of the percentage of matrix degradation, using Image J software.\nPlastic coverslips (13 mm diameter) (Nalgen #174950) were washed in ethanol 70%, dried then coated with poly-L-lysine 1 mg/ml for 20 min at room temperature. After one wash in sterile PBS, 0.5% Glutaraldehyde was added for 15 min at room temperature. After three washes in PBS, Gelatin-FITC (0.2 mg/ml Invitrogen #G13187) was added for 10 minutes at room temperature in the dark. Coverslip were then washed with sterile PBS and treated with 5 mg/ml sodium borohydride for 3 min. After three washes in sterile PBS, 10^5 HDMECs (PromoCell #C-12210) were seeded per well in their PromoCell culture medium and incubated overnight at 37° C. 5% CO2. The day after, cells were infected with Neisseria meningitidis Nm2C4.3, as above described. […] Quantifications were performed using ImageJ software (NIH)."}, "[2]": {"system": "type IV pili of N. meningitidis 2C4.3 and isogenic PilT mutant", "assay": "Aggregation and type IV pili of wild type and PilT mutant (phase-contrast and transmission electron microscopy)", "format": "cell-based, Neisseria meningitidis", "procedure": "N. meningitidis 2C4.3 wild type strain and the isogenic derivative mutant PilT ([…]PilT) were grown in liquid culture at 10^7 CFU/ml for 2 h to form bacterial aggregates and then treated with 50 μM Trifluoperazine. Time lapse phase-contrast video microscopy was performed to visualize the effect on bacterial aggregates over time. Images were taken at the indicated time points of the video.\nN. meningitidis 2C4.3 wild type strain and the isogenic derivative mutant PilT ([…]PilT) were grown in liquid culture at 10^7 CFU/ml for 2 h to form bacterial aggregates and then treated with 50 μM Trifluoperazine for 15 minutes before analysis by transmission electron microscopy. Arrows point at bundles of type IV pili expressed at the bacterial surface.\nN. meninigitidis 2C4.3 strain and the isogenic derivative mutant PilT, where the pilT gene was interrupted by an erythromycin-resistance cassette (Pujol et al., 1999), were grown in suspension in DMEM medium supplemented with 10% heat-inactivated fetal calf serum. PilT belongs to a highly conserved protein family homologous to AAA-type motor proteins and is proposed to cause the retraction of type IV pili by disassembling the pilin subunits at the base of the fiber (Morand et al., 2004). After 2 h of growth, Trifluoperazine (or control vehicle) was added at 50 μM for 20 min. The effect on bacterial aggregates were visualized over time using a phase-contrast microscope or the bacterial suspensions were fixed in 4% Paraformaldehyde for 10 min, centrifuged at 1000 rpm for 5 minutes and the bacterial pellets washed in PBS. After negative staining with 1% phosphotungstic acid, bacteria were analysed by transmission electron microscopy, using a JEOL 1011 microscope."}, "[3]": {"system": "HBMECs infected with meningococci", "assay": "PECAM-1 recruitment at bacterial adhesion sites in infected HBMEC", "format": "cell-based, human", "details": "5 μM, 2 h infection", "procedure": "(A) Monolayers of HBMECs were non-infected or infected for 2 h with meningococci and the effect on the localisation of the endothelial cell junction proteins PECAM-1 and […]-catenin was analysed by immunofluorescence analysis. Arrows point at PECAM-1 molecules recruited at bacterial adhesion sites (B) HBMECs were infected for 2 h with meningococci in the presence or in the absence of 5 μM Trifluoperazine and the effect on junctional PECAM-1 and on the endothelial cell cytoskeleton remodelling (Ezrin, Actin) was analysed by immunofluorescence analysis. (C) Quantification of Actin and PECAM-1 recruitment at sites of bacterial adhesion was performed using Image J software.\nHDMECs were grown in their specific culture medium (Promocell #C-12210) and confluent monolayers were infected with 2C4.3. Briefly, bacteria were precultured in prewarmed cell culture medium for 1 h 30 min at 37° C. 5% CO2. The OD600 was adjusted to 0.1 and HDMECs were then overlaid with bacteria for 30 min (MOI of 100). Unbound bacteria were removed by three washes in cell culture media and infection was allowed to proceed for 1 h at 37° C. 5% CO2. Gentamicin was added at 150 μg/ml for 1 h, then after three washes in cell culture media, Trifluoperazine was applied where mentioned at 50 μM for 20 min. […] Quantifications were done using ImageJ software (NIH)."}}, "data": [{"smiles": "CN[C@@H]1[C@@H](O)C(O[C@@H]2[C@@H](O)[C@H](O[C@H]3O[C@H]([C@@H](C)NC)CC[C@H]3N)[C@@H](N)C[C@H]2N)OC[C@]1(C)O", "note": "(stereo partly drawn) [Gentamicin, (3R,4R,5R)-2-{[(1S,2S,3R,4S,6R)-4,6-diamino-3-{[(2R,3R,6S)-3-amino-6-[(1R)-1-(methylamino)ethyl]oxan-2-yl]oxy}-2-hydroxycyclohexyl]oxy}-5-methyl-4-(methylamino)oxane-3,5-diol]", "values": [{"measurement": "degradation of the basement membrane", "setting": "[1]", "value": "about 20%"}]}, {"smiles": "CN1CCN(CCCN2c3ccccc3Sc3ccc(C(F)(F)F)cc32)CC1", "note": "[Trifluoperazine]", "values": [{"measurement": "surface expression of type IV pili, PilT mutant (TEM)", "setting": "[2]; 50 μM", "value": "did not affect"}, {"measurement": "type IV pili on bacterial surface, wild type 2C4.3 (TEM)", "setting": "[2]; 50 μM for 30 minutes", "value": "no longer observed"}, {"measurement": "effect on aggregation of PilT mutant strain", "setting": "[2]; 50 μM, PilT mutant unable to retract type IV pili", "value": "no effect"}, {"measurement": "PECAM-1 recruitment at bacterial adhesion sites", "setting": "[3]", "value": "prevented PECAM-1 recruitment"}, {"measurement": "bacterial colonization", "setting": "[3]", "value": "did not affect"}]}]}
